According to patent US20040116501A1, “Treatment of nonallergic rhinitis by selective phosphodiesterase 4 inhibitors” (priority 2002, published 2004):
Like-named read-outs stand apart in the source and are kept apart here. Marks after values point to notes of the source that are not given here.

System: acetic acid-induced vascular permeability of the rat nasal mucosa
Experiment: Acetic acid-induced vascular permeability in Sprague-Dawley rats (nonallergic rhinitis model), Evans Blue in nasal perfusate
Assay type: in vivo
Conditions: for inhibition of the vascular permeability of the nasal mucosa (in words): test range from 0.1 to 10 μmol/l
Experimental: Effect on Acetic Acid-Induced Vascular Permeability in Sprague-Dawley Rats (Nonallergic Rhinitis Model)
Male Sprague-Dawley rats weighing 280-320 g are anesthetized on the day of the experiment by i.p. injection of 0.9-1 ml/animal of a 2.5% strength thiopental sodium solution. The trachea is then exposed below the epiglottis and incised at two points. A polyethylene catheter is pushed into the lower opening in the trachea in the direction of the lung (orthograde) and secured by tying with twine in order to maintain breathing. A second polyethylene catheter with LUER lock connector (cut from Original-Perfusor® line) for retrograde perfusion of the nasal cavity is introduced into the upper opening and advanced retrogradely as far as the inner opening of the choanae so that the solution can flow through the nasal cavity. 8 animals in total are placed individually on their backs on specially fabricated plastic tables in such a way that the perfusion fluid can drip out of the nostrils and be collected in the fraction collector.
During this, half of the head looks with the nose beyond the edge of the table.
A polyethylene infusion line is connected to the LUER lock connector of the catheter which has been secured retrogradely in each animal and is immersed in the container with the prepared perfusion fluid via a roller pump. The roller pump is adjusted to a constant delivery of 0.5 ml of fluid/min. A red lamp is switched on over the animals for warming.
Initial perfusion of the nasal cavity with PBS for 30 min serves to wash out the nasal mucus. During this, the fraction collector is switched on and the perfusate dripping out of the nostrils is collected in 15 min fractions (2 fractions). The second fraction is used as normal value for the experiment.
The test substances are administered topically before administration of acetic acid. They are added to the perfusion medium (PBS, Dulbecco) in molar concentrations. 4.6 mg of AWD 12-281 or other test substances such as AWD 12-322 or AWD 12-298 are diluted in accordance with their molecular weight (4.6 mg of AWD 12-322 or 5.2 mg of AWD 12-298) with 1 ml of 1N NaOH and then made up to 10 ml with double-distilled H2O. […] These solutions are perfused through the noses using the roller pump for 30 min, and the 2 samples obtained from the fraction collector are discarded. The roller pump is then switched off.
After perfusion with the substance, the plasma marker Evans Blue (1% strength solution in PBS) is injected, 1 ml per animal, into the jugular vein and then 0.1% strength acetic acid solution is forced through tubings and roller pumps into the nasal cavity until 2-3 drops of acetic acid solution drip from the conchae. The roller pumps are then switched off. The acetic acid solution is left in the nasal cavity for 30 minutes in order to ensure complete permeation of the nasal mucosa.
After an exposure time of 30 minutes, the roller pumps and the fraction collector are switched on again, and the 0.1% strength acetic acid solution in PBS is perfused retrogradely (with a constant delivery of 0.5 ml liquid/min) through the nasal cavity for 60 min. During this, the perfusate dripping out of the nostrils is continuously received in glass tubes and collected in 4 periods of 15 min. Aliquots of the samples including the control samples are placed on microtiter plates and measured using a Digiscan photometer at a wavelength of 620 nm relative to the control sample (blank). […] The Evans Blue content in 4 collected fractions, each selected over 15 minutes, of the perfusate flowing out in μg/ml is calculated by formula 1: [formula]
tn time interval (15 min)
yn Evans Blue content per time interval (μg/l per 15 min)
The means and standard deviations (x±SD) of the AUC′ for individual animals in a control group or a group of animals pretreated with substance are calculated. The inhibition of the vascular permeability is stated in percent.

[1] = test substance concentration 0.1 μmol/l, single 30-minute nasal perfusion before 0.1% acetic acid, rat
[2] = test substance concentration 1 μmol/l, single 30-minute nasal perfusion before 0.1% acetic acid, rat
[3] = test substance concentration 1 μmol/l, single 30-minute nasal perfusion before 0.1% acetic acid, rat, vs vehicle control
[4] = test substance concentration 3 μmol/l, single 30-minute nasal perfusion before 0.1% acetic acid, rat
[5] = test substance concentration 3 μmol/l, single 30-minute nasal perfusion before 0.1% acetic acid, rat, vs vehicle control
[6] = test substance concentration 10 μmol/l, single 30-minute nasal perfusion before 0.1% acetic acid, rat
[7] = test substance concentration 10 μmol/l, single 30-minute nasal perfusion before 0.1% acetic acid, rat, vs vehicle control
[8] = acetic acid-induced rhinitis in rats

| SMILES | Evans Blue content (μg/ml) in the perfusate AUC′ x ± SD [1] [µg/mL] | Evans Blue content (μg/ml) in the perfusate AUC′ x ± SD [2] [µg/mL] | % Inhibition [3] | Evans Blue content (μg/ml) in the perfusate AUC′ x ± SD [4] [µg/mL] | % Inhibition [5] | Evans Blue content (μg/ml) in the perfusate AUC′ x ± SD [6] [µg/mL] | % Inhibition [7] | inhibition of the vascular permeability of the nasal mucosa (in words) [8] | other results |
| --- | --- | --- | --- | --- | --- | --- | --- | --- | --- |
| C[C@H]1C[C@H]2[C@@H]3CCC4=CC(=O)C=C[C@]4(C)[C@@]3(Cl)[C@@H](O)C[C@]2(C)[C@@]1(O)C(=O)CO [Beclomethasone, beclomethasone, reference compound] | 4.93 ± 3.19 | 0.93 ± 1.80 | 95** % | 5.51 ± 7.12 | 68* % | 4.86 ± 8.08 | 81** % | – | effect against the vascular plasma permeability induced by acetic acid in the nasal mucosa (in words) (rat rhinitis model, summary statement): dose-dependent effect; activity compared with the PDE4 inhibitors (in words) (standard therapeutic agents, acetic acid-induced rhinitis in rats): approximately the same activity; Evans Blue content (μg/ml) in the perfusate AUC′ x ± SD (test substance concentration 0.01 μmol/l, single 30-minute nasal perfusion before 0.1% acetic acid, rat): 10.70 ± 2.38 µg/mL; % Inhibition (test substance concentration 0.01 μmol/l, single 30-minute nasal perfusion before 0.1% acetic acid, rat, vs vehicle control): 38%; % Inhibition (test substance concentration 0.1 μmol/l, single 30-minute nasal perfusion before 0.1% acetic acid, rat, vs vehicle control): 72* % |
| O=C(Nc1c(Cl)cncc1Cl)C(=O)c1cn(Cc2ccc(F)cc2)c2ccc(O)cc12 [AWD 12-281, N-(3,5-dichloropyrid-4-yl)-[1-(4-fluorobenzyl)-5-hydroxyindol-3-yl]glyoxylamide] | 10.88 ± 8.45 | 5.96 ± 7.97 | – | 6.41 ± 5.81 | – | 3.68 ± 4.40 | – | concentration-dependent inhibition | inhibition at 0.1 µM (0.5 h, test substance concentration 0.1 μmol/l, single 30-minute nasal perfusion before 0.1% acetic acid, rat, vs vehicle control, read-out: % Inhibition): 29%; inhibition at 1 µM (0.5 h, test substance concentration 1 μmol/l, single 30-minute nasal perfusion before 0.1% acetic acid, rat, vs vehicle control, read-out: % Inhibition): 61%; inhibition at 3 µM (0.5 h, test substance concentration 3 μmol/l, single 30-minute nasal perfusion before 0.1% acetic acid, rat, vs vehicle control): 58%; inhibition at 10 µM (0.5 h, test substance concentration 10 μmol/l, single 30-minute nasal perfusion before 0.1% acetic acid, rat, vs vehicle control, read-out: % Inhibition): 76% |
| O=C(Nc1c(Cl)cncc1Cl)C(=O)c1cn(Cc2ccc(O)cc2)c2ccc(O)cc12 [AWD 12-322, N-(3,5-dichloropyrid-4-yl)-2-[5-hydroxy-1-(4-hydroxybenzyl)-1H-indol-3-yl]glyoxylamide] | 13.77 ± 6.65 | 7.25 ± 6.77 | – | – | – | 2.62 ± 3.44 | – | concentration-dependent inhibition | inhibition at 0.1 µM (Rattus norvegicus, 0.5 h): 5%; inhibition at 1 µM (Rattus norvegicus, 0.5 h): 50%; inhibition at 10 µM (Rattus norvegicus, 0.5 h): 82% |
| CCOC(C)=O.O=C(Nc1c(Cl)cncc1Cl)C(=O)c1cn(Cc2c(F)cccc2F)c2ccc(O)cc12.O=C(Nc1c(Cl)cncc1Cl)C(=O)c1cn(Cc2c(F)cccc2F)c2ccc(O)cc12 [AWD 12-298, N-(3,5-dichloropyrid-4-yl)-[1-(2,6-difluorobenzyl)-5-hydroxyindol-3-yl]glyoxylamide semi-ethyl acetate] | – | 17.72 ± 9.31 | 0% | 8.43 ± 5.56 | 49% | 6.03 ± 7.11 | 64* % | – | activity in the model of acetic acid-induced rhinitis (in words) (concentration range from 3 to 10 μmol/l, rats): concentration-dependent activity |
